Results taken from patent publication US7648983B2, “BACE inhibitors” (Eli Lilly and Company, priority 2008, dated 2010).
Structures can show the parent of a compound that is named as a salt. Where two headings read alike, the source gives them in different places.

Assays:
beta-secretase = target: T1, beta-secretase (Mus musculus, UniProt P56818); test: In vivo inhibition of beta-secretase in PDAPP mice; conditions: 3 hours
T1 construct: from tissue; host or cells: living PDAPP mice; brain cortex, plasma and CSF analysed
T1 sequence (P56818 46-501): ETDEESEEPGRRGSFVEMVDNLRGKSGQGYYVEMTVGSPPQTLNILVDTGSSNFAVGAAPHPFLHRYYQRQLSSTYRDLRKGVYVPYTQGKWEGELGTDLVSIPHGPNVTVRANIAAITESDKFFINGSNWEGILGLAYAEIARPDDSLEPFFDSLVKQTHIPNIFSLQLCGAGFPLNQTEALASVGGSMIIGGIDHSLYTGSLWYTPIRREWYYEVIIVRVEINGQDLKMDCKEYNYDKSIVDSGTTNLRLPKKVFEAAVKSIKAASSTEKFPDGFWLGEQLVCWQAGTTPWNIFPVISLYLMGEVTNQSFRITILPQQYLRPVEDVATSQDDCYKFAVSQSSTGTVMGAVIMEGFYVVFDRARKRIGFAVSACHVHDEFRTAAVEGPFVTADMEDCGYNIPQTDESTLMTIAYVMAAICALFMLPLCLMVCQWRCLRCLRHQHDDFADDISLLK
Source text: Several animal models, including mouse, guinea pig, dog, and monkey, may be used to screen for inhibition of beta-secretase activity in vivo following compound treatment. Animals used in this invention can be wild type, transgenic, or gene knockout animals. For example, the PDAPP mouse model, prepared as described in Games et al., Nature 373, 523-527 (1995), and other non-transgenic or gene knockout animals are useful to analyze in vivo inhibition of Abeta and sAPPbeta production in the presence of inhibitory compounds. Generally, 2 to 12 month old PDAPP mice, gene knockout mice or non-transgenic animals are administered compound formulated in vehicles, such as corn oil, cyclodextran, phosphate buffers, PHARMASOLVE®, or other suitable vehicles. One to twenty-four hours following the administration of compound, animals are sacrificed, and brains as well as cerebrospinal fluid and plasma are removed for analysis of Abetas, C99 and sAPP fragments. (See Dovey, et al., Journal of Neurochemistry, 76, 173-181 (2001); and Johnson-Wood, et al., Proc. Natl. Acad. Sci. USA, 94, 1550-1555 (1997)).
For standard efficacy studies, animals are dosed with various concentrations of compound and compared to a vehicle-treated control group dosed at the same time. For some time course studies, brain tissue, plasma or cerebrospinal fluid is obtained from selected animals, beginning at time 0 to establish a baseline. Compound is administered to other groups and sacrificed at various times after dosing. Brain tissue, plasma or cerebrospinal fluid is obtained from selected animals and analyzed for the presence of APP cleavage products, including Abeta peptides, sAPPbeta and other APP fragments, for example, by specific sandwich ELISA assays. At the end of the test period, animals are sacrificed and brain tissues, plasma or cerebrospinal fluid are analyzed for the presence of Abeta peptides, C99 and sAPPbeta. Brain tissues of APP transgenic animals are also analyzed for the amount of beta-amyloid plaques following compound treatment.
For example, 3 hours after administration of 100 mg/kg sub-cutaneous dose of the compound of example 19 to young male PDAPP mice, Abeta 1-x peptide, C99 and sAPPb levels are reduced approximately 30%, 50% and 20% in brain cortex, respectively, compared to vehicle-treated mice.

[1] = target: T2, beta-secretase (BACE) in primary cortical neurons from PDAPP transgenic embryonic mice (Mus musculus, UniProt P56818); test: PDAPP primary neuronal assay (Abeta ELISA); type: cell-based
T2 construct: endogenous in cells; host or cells: primary cortical neurons from Embryonic Day 16 PDAPP transgenic mouse embryos
T2 sequence (P56818 46-501): as above
Procedure: (§1) For in vitro enzymatic and cellular assays, test compounds are prepared in DMSO to make up a 10 mM stock solution. The stock solution is serially diluted in DMSO to obtain a ten-point dilution curve with final compound concentrations ranging from […] to 1 pM in a 96-well round-bottom plate before conducting the in vitro enzymatic and whole cell assays.
A confirmatory whole cell assay is also run in primary neuronal cultures generated from PDAPP transgenic embryonic mice. Primary cortical neurons are prepared from Embryonic Day 16 PDAPP embryos and cultured in 96 well plates (15×10^4 cells/well in DMEM/F12 (1:1) plus 10% FBS). After 4-6 days in vitro, culture media is replaced with serum free DMEM/F12 (1:1) containing B27 supplement and neurons are incubated at 37° C. for 24 h in the presence/absence of inhibitors (diluted in DMSO) at the desired concentration. At the end of the incubation, conditioned media are analyzed for evidence of beta-secretase activity, for example, by analysis of Abeta peptides. Total Abeta peptides (Abeta 1-x) are measured by a sandwich ELISA, using monoclonal 266 as a capture antibody and biotinylated 3D6 as reporting antibody. Alternatively, Abeta 1-40 and Abeta 1-42 peptides are measured by a sandwich ELISA, using monoclonal 2G3 as a capture antibody for Abeta 1-40, and monoclonal 21F12 as a capture antibody for Abeta 1-42. Both Abeta 1-40 and Abeta 1-42 ELISAs use biotinylated 3D6 as the reporting antibody. The concentration of Abeta released in the conditioned media following the compound treatment corresponds to the activity of BACE under such conditions. The 10-point inhibition curve is plotted and fitted with the four-parameter logistic equation to obtain the EC50 and IC50 values for the Abeta-lowering effect. […]

human BACE(1-460):Fc = target: T3, human BACE(1-460):Fc (Homo sapiens, UniProt P56817); test: BACE FRET assay; type: biochemical
T3 construct: made in house; host or cells: HEK293 cells (transient, pJB02 vector), purified from conditioned media by Protein A
T3 sequence (P56817 22-460): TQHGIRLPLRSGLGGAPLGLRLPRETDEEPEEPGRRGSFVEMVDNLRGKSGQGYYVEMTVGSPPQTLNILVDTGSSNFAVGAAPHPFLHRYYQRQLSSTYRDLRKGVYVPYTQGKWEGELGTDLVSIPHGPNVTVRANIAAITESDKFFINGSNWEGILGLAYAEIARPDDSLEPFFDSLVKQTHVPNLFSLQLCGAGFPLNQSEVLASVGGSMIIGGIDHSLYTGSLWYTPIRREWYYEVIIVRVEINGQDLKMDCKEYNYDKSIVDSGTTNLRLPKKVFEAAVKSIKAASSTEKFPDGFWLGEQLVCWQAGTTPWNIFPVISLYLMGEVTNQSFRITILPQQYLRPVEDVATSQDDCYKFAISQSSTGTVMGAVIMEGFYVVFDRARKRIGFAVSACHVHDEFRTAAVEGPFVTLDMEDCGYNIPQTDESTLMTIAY
Procedure: as §1
Serial dilutions of test compounds are prepared as described above. Compounds are further diluted 20× in KH2PO4 buffer. Ten μL of each dilution is added to each well on row A to H of a corresponding low protein binding black plate containing the reaction mixture (25 μL of 50 mM KH2PO4, pH 4.6, 1 mM TRITON® X-100, 1 mg/mL Bovine Serum Albumin, and 15 μM of FRET substrate) (See Yang, et. al., J. Neurochemistry, 91(6) 1249-59 (2004)). The content is mixed well on a plate shaker for 10 minutes. Fifteen μL of two hundred pM human BACE(1-460):Fc (See Vasser, et al., Science, 286, 735-741 (1999)) in the KH2PO4 buffer is added to the plate containing substrate and test compounds to initiate the reaction. The RFU of the mixture at time 0 is recorded at excitation wavelength 355 nm and emission wavelength 460 nm, after brief mixing on a plate shaker. The reaction plate is covered with aluminum foil and kept in a dark humidified oven at room temperature for 16 to 24 h. The RFU at the end of incubation is recorded with the same excitation and emission setting. The difference of the RFU at time 0 and the end of incubation is representative of the activity of BACE under the compound treatment. RFU differences are plotted versus inhibitor concentration and a curve is fitted with a four-parameter logistic equation to obtain the EC50 and IC50 values. (See Sinha, et al., Nature, 402, 537-540 (2000)).
Human (accession number: AF190725) is cloned from total brain cDNA by […]. The nucleotide sequences corresponding to amino acid sequences #1 to 460 are inserted into the cDNA encoding human IgG1 (Fc) polypeptide (Vassar et al. 1999). This fusion protein of BACE(1-460) and human Fc, named huBACE:Fc, is constructed into the pJB02 vector. Human BACE(1-460):Fc (huBACE:Fc) is transiently expressed in HEK293 cells. 250 μg cDNA of each construct is mixed with Fugene 6 and added to 1 liter HEK293 cells. Four days after the transfection, conditioned media are harvested for purification.
huBACE:Fc is purified by Protein A chromatography. The enzyme is stored at −80° C. in small aliquots.

[2] = target: T4, beta-secretase (BACE) in HEK293/APP751sw cells (Homo sapiens, UniProt P56817); test: HEK293Swe whole cell assay (Abeta ELISA); type: cell-based
T4 construct: endogenous in cells; host or cells: HEK293p (ATCC CRL-1573) stably expressing human APP751 Swedish
T4 sequence (P56817 46-501): as the sequence (P56818 46-501) above, with S6P, I162V, I165L, T180S, A182V, V340I, A393L, H443Q counted along it
Procedure: as §1
The routine whole cell assay for the measurement of inhibition of beta-secretase activity utilizes the human embryonic kidney cell line HEK293p (ATCC Accession No. CRL-1573) stably expressing a human APP751 cDNA containing the naturally occurring double mutation Lys651Met652 to […], commonly called the Swedish mutation (noted HEK293/APP751sw) and shown to overproduce Abeta (Citron, et al., Nature, 360, 672-674 (1992)). In vitro Aβ reduction assays have been described in the literature (See Dovey, et al., Journal of Neurochemistry, 76, 173-181 (2001); Seubert, et al., Nature, 361, 260 (1993); and Johnson-Wood, et al., Proc. Natl. Acad. Sci. USA, 94, 1550-1555 (1997)).
Cells (HEK293/APP751sw at 3.5×10^4 cells/well, containing 200 μL culture media, DMEM containing 10% FBS) are incubated at 37° C. for 4 to 24 h in the presence/absence of inhibitors (diluted in DMSO) at the desired concentration. At the end of the incubation, conditioned media are analyzed for evidence of beta-secretase activity, for example, by analysis of Abeta peptides. Total Abeta peptides (Abeta 1-x) are measured by a sandwich ELISA, using monoclonal 266 as a capture antibody and biotinylated 3D6 as reporting antibody. Alternatively, Abeta 1-40 and Abeta 1-42 peptides are measured by a sandwich ELISA, using monoclonal 2G3 as a capture antibody for Abeta 1-40, and monoclonal 21F12 as a capture antibody for Abeta 1-42. Both Abeta 1-40 and Abeta 1-42 ELISAs use biotinylated 3D6 as the reporting antibody. The concentration of Abeta released in the conditioned media following the compound treatment corresponds to the activity of BACE under such conditions. The 10-point inhibition curve is plotted and fitted with the four-parameter logistic equation to obtain the EC50 and IC50 values for the Abeta-lowering effect.

[3] = 30 mg/kg sub-cutaneous, young male PDAPP mice, brain, vs vehicle-treated mice
[4] = Table 28, Abeta 1-40 in conditioned media, 24 h, read-out: PDAPP Neuron A-beta (1-40) ELISA IC50
[5] = Table 28, Abeta 1-42 in conditioned media, 24 h, read-out: PDAPP Neuron A-beta (1-42) ELISA IC50
[6] = Table 26, purified recombinant huBACE:Fc, FRET substrate, pH 4.6
[7] = Table 27, Abeta 1-40 in conditioned media, read-out: HEK 293 Swe A-beta (1-40) ELISA IC50
[8] = Table 27, Abeta 1-42 in conditioned media, read-out: HEK 293 Swe A-beta (1-42) ELISA IC50
[9] = 100 mg/kg sub-cutaneous, young male PDAPP mice, vs vehicle-treated mice
[10] = Table 29, comparator of WO 2007/049532 and enantiomers
[11] = Table 29, comparator of WO 2007/049532 and enantiomers, read-out: HEK 293 Swe A-beta (1-40) ELISA IC50
[12] = Table 29, comparator of WO 2007/049532 and enantiomers, read-out: HEK 293 Swe A-beta (1-42) ELISA IC50
[13] = Table 29, comparator of WO 2007/049532 and enantiomers, read-out: PDAPP Neuron A-beta (1-40) ELISA IC50
[14] = Table 29, comparator of WO 2007/049532 and enantiomers, read-out: PDAPP Neuron A-beta (1-42) ELISA IC50

Row | IC50 [1, 4] [nM] | IC50 [1, 5] [nM] | IC50 (human BACE(1-460):Fc; [6]) [nM] | IC50 [2, 7] [nM] | IC50 [2, 8] [nM] | IC50 (human BACE(1-460):Fc; [10]) [nM] | IC50 [2, 11] [nM] | IC50 [2, 12] [nM] | SMILES | other results
1 |  |  |  |  |  |  |  |  | C[C@@]1(c2cc(-c3cncnc3)c(F)cc2F)CCSC(N)=N1 [Example 5, (S)-4-(2,4-Difluoro-5-pyrimidin-5-yl-phenyl)-4-methyl-5,6-dihydro-4H-[1,3]thiazin-2-ylamine] | CSF Abeta 1-x level reduction (beta-secretase; 10 mg/kg oral, CSF): ~60%; plasma Abeta 1-x level reduction (beta-secretase; 10 mg/kg oral, plasma): approximately 50%; Abeta 1-x peptide level reduction (beta-secretase; [3]): approximately 50%; C99 level reduction (beta-secretase; [3]): ~45%; sAPPb level reduction (beta-secretase; [3]): approximately 30%
2 | 658 | 648 | 833 | 1300 | 948 |  |  |  | C[C@@]1(c2ccc(F)c(-c3cnccn3)c2)CCSC(N)=N1 [Example 12, (S)-4-(4-fluoro-3-(pyrazin-2-yl)phenyl)-4-methyl-5,6-dihydro-4H-1,3-thiazin-2-amine dihydrochloride] | 
3 | 288 | 214 | 420 | 335 | 480 |  |  |  | COc1cncc(-c2cccc([C@]3(C)CCSC(N)=N3)c2)c1.Cl.Cl [Example 19, (S)-4-[3-(5-Methoxy-pyridin-3-yl)-phenyl]-4-methyl-5,6-dihydro-4H-[1,3]thiazin-2-ylamine dihydrochloride] | Abeta 1-x peptide level reduction in brain cortex (beta-secretase; [9]): approximately 30%; C99 level reduction in brain cortex (beta-secretase; [9]): approximately 50%; sAPPb level reduction in brain cortex (beta-secretase; [9]): ~20%
4 | 355 | 429 | 867 | 863 | 803 |  |  |  | CC1(C)C[C@@](C)(c2ccc(F)c(-c3cncnc3)c2)N=C(N)S1 [Example 21, (S)-4-(4-fluoro-3-(pyrimidin-5-yl)phenyl)-4,6,6-trimethyl-5,6-dihydro-4H-1,3-thiazin-2-amine] | 
5 |  |  |  |  |  | 116000 | 21400 | 35300 | CC1(c2ccc(-c3ccccc3)cc2)CCSC(N)=N1 (stereo not drawn) [reference compound] | 
6 |  |  |  |  |  | 28000 | 13200 | 16400 | C[C@@]1(c2ccc(-c3ccccc3)cc2)CCSC(N)=N1 [reference compound] | IC50 [1, 13]: 7820 nM; IC50 [1, 14]: 10400 nM
7 |  |  |  |  |  | > 100000 | 16500 | 23700 | C[C@]1(c2ccc(-c3ccccc3)cc2)CCSC(N)=N1 [reference compound] | IC50 [1, 13]: 28100 nM; IC50 [1, 14]: 46800 nM
